US20120094897A1, “NOVEL INHIBITORS OF HEPATITIS C VIRUS REPLICATION” (InterMune, Inc., priority 2010, published 2012)

How the values were obtained:
[1] = biological target: T1, HCV NS3 protease (full-length NS3/NS4A-2 complex) (Hepatitis C virus genotype 1a, UniProt P27958); assay: NS3 Inhibition Assay (NS3-NS4 protease assay, RETS1 substrate); assay type: biochemical; conditions: NS3/NS4A-2, RETS1 substrate, 10 minutes pre-incubation
T1 construct: Recombinant E. coli or Baculovirus full-length NS3 was diluted to 3.33 μM with assay buffer; host or cells: E. coli or baculovirus (insect cells)
Method: NS3 Complex Formation with NS4A-2.
Recombinant E. coli or Baculovirus full-length NS3 was diluted to 3.33 μM with assay buffer and the material was transferred to an eppendorf tube and placed in a water bath in a 4° C. refrigerator. The appropriate amount of NS4A-2 diluted to 8.3 mM in assay buffer was added to an equal the volume of NS3 above (conversion factor—3.8 mg/272 μL assay buffer). The material was transferred to an eppendorf tube and placed in water bath in a 4° C. refrigerator.
After equilibration to 4° C., equal volumes of NS3 and NS4A-2 solutions were combined in an eppendorf tube, mixed gently with a manual pipettor, and incubated for 15 minutes in the 4° C. water bath. Final concentrations in the mixture are 1.67 μM NS3, 4.15 mM NS4A-2 (2485-fold molar excess NS4A-2).
After 15 minutes at 4° C., the NS3/NS4A-2 eppendorf tube was removed and placed in a room temperature water bath for 10 minutes. NS3/NS4A-2 was aliquoted at appropriate volumes and stored at −80° C. (E. coli NS3 run at 2 nM in assay, aliquot at 25 μL. BV NS3 run at 3 nM in assay, aliquot at 30 μL).
Step a. Sample compounds were dissolved to 10 mM in DMSO then diluted to 2.5 mM (1:4) in DMSO. Typically, compounds were added to an assay plate at 2.5 mM concentration, yielding upon dilution a starting concentration of 50 μM in the assay inhibition curve. Compounds were serial diluted in assay buffer to provide test solutions at lower concentrations.
Step 1. The E. coli. NS3/NS4A-2 was diluted to 4 nM NS3 (1:417.5 of 1.67 μM stock−18 μL 1.67 μM stock+7497 μL assay buffer). The BV NS3/NS4A-2 was diluted to 6 nM NS3 (1:278.3 of 1.67 μM stock−24 μL 1.67 μM stock+6655 μL assay buffer).
Step. 2. Using the manual multichannel pipettor, and being careful not to introduce bubbles into the plate, 50 μL assay buffer was added to wells A01-H01 of a black Costar 96-well polypropylene storage plate.
Step 3. Using the manual multichannel pipettor, and being careful not to introduce bubbles into the plate, 50 μL of diluted NS3/NS4A-2 from step 1 was added to wells A02-H12 of the plate in step 2.
Step 4. Using the manual multichannel pipettor, and being careful not to introduce bubbles into the plate, 25 μL of the wells in drug dilution plate in step a was transferred to corresponding wells in assay plate in step 3. The tips on the multichannel pipettor were changed for each row of compounds transferred.
Step 5. Using the manual multichannel pipettor, and being careful not to introduce bubbles into the plate, the contents of the wells from the assay plate in step 4 were mixed by aspirating and dispensing 35 μL of the 75 μL in each well five times. The tips on multichannel pipettor were changed for each row of wells mixed.
Step 6. The plate was covered with a polystyrene plate lid, and the plate from step 5 containing NS3 protease and sample compounds was pre-incubated 10 minutes at room temperature.
While the plate from step 6 is pre-incubating, the RETS1 substrate was diluted in a 15 mL polypropylene centrifuge tube. The RETS1 substrate was diluted to 8 μM (1:80.75 of 646 μM stock−65 μL 646 μM stock+5184 μL assay buffer).
After the plate in step 6 finished pre-incubating, and using the manual multichannel, 25 μL of substrate was added to all wells on the plate. The contents of the wells of the plate were quickly mixed, as in step 5, mixing 65 μL of the 100 μL in the wells.
The plate was read in kinetic mode on the Molecular Devices SpectraMax Gemini XS plate reader. Reader settings: Read time: 30 minutes, Interval: 36 seconds, Reads: 51, Excitation λ: 335 nm, Emission λ: 495 nm, cutoff: 475 nm, Automix: off, Calibrate: once, PMT: high, Reads/well: 6, Vmax pts: 21 or 28/51 depending on length of linearity of reaction
IC50s are determined using a four parameter curve fit equation, and converted to Ki's using the following Km's: • Full-length E. coli NS3-2.03 μM • Full-length BV NS3-1.74 μM • where Ki=IC50/(1+[S]/Km))

[2] = tested on: HCV sub-genomic replicon (I377/NS3-3′) in HuH-7 hepatoma cells (GS4.3); assay: Quantitation by ELISA of NPTII in the HCV sub-genomic replicon, GS4.3; assay type: cell-based; conditions: Hepatitis C virus, GS4.3 replicon cells, 72 h incubation
Method: The HCV sub-genomic replicon (I377/NS3-3′, accession No. AJ242652), stably maintained in HuH-7 hepatoma cells, was created by Lohmann et al. Science 285: 110-113 (1999). The replicon-containing cell culture, designated GS4.3, was obtained from Dr. Christoph Seeger of the Institute for Cancer Research, Fox Chase Cancer Center, Philadelphia, Pa.
GS4.3 cells were maintained at 37° C., 5% CO2, in DMEM (Gibco 11965-092) supplemented with L-glutamine 200 mM (100×) (Gibco25030-081), non-essential amino acids (NEAA)(Biowhittaker 13-114E), heat-inactivated (HI) Fetal Bovine Serum(FBS)(Hyclone SH3007.03) and […] geneticin (G418)(Gibco 10131-035). Cells were sub-divided 1:3 or 4 every 2-3 days.
24 h prior to the assay, GS4.3 cells were collected, counted, and plated in 96-well plates (Costar 3585) at 7500 cells/well in 100 μL standard maintenance medium (above) and incubated in the conditions above. To initiate the assay, culture medium was removed, cells were washed once with PBS (Gibco 10010-023) and 90 μl Assay Medium (DMEM, L-glutamine, NEAA, 10% HI FBS, no G418) was added. Inhibitors were made as a 10× stock in Assay Medium, (3-fold dilutions from 10 μM to […] final concentration, final DMSO concentration 1%), 10 μL were added to duplicate wells, plates were rocked to mix, and incubated as above for 72 h.
An NPTII Elisa kit was obtained from AGDIA, Inc. (Compound direct ELISA test system for Neomycin Phosphotransferase II, PSP 73000/4800). Manufacturer's instructions were followed, with some modifications. 10×PEB-1 lysis buffer was made up to include 500 μM PMSF (Sigma P7626, 50 mM stock in isopropanol). After 72 h incubation, cells were washed once with PBS and 150 μL PEB-1 with PMSF was added per well. Plates were agitated vigorously for 15 minutes, room temperature, and then frozen at −70° C. Plates were thawed, lysates were mixed thoroughly, and 100 μL were applied to an NPTII Elisa plate. A standard curve was made. Lysate from DMSO-treated control cells was pooled, serially diluted with PEB-1 with PMSF, and applied to duplicate wells of the ELISA plate, in a range of initial lysate amount of 150 μL. In addition, 100 μL buffer alone was applied in duplicate as a blank. Plates were sealed and gently agitated at room temperature for 2 h. Following capture incubation, the plates were washed 5×300 μL with PBS-T (0.5% Tween-20, PBS-T was supplied in the ELISA kit). For detection, a 1× dilution of enzyme conjugate diluent MRS-2 (5×) was made in PBS-T, into which 1:100 dilutions of enzyme conjugates A and B were added, as per instructions. Plates were resealed, and incubated with agitation, covered, room temperature, for 2 h. The washing was then repeated and 100 μL of room temperature TMB substrate was added. After approximately 30 minutes incubation (room temperature, agitation, covered), the reaction was stopped with 50 μL 3M sulfuric acid. Plates were read at 450 nm on a Molecular Devices Versamax plate reader.
Inhibitor effect was expressed as a percentage of DMSO-treated control signal, and inhibition curves were calculated using a 4-parameter equation: y=A+4B−A)/(1+((C/x)̂D))), where C is half-maximal activity or EC50.

T1 sequence (P27958 1027-1657, one chain of several): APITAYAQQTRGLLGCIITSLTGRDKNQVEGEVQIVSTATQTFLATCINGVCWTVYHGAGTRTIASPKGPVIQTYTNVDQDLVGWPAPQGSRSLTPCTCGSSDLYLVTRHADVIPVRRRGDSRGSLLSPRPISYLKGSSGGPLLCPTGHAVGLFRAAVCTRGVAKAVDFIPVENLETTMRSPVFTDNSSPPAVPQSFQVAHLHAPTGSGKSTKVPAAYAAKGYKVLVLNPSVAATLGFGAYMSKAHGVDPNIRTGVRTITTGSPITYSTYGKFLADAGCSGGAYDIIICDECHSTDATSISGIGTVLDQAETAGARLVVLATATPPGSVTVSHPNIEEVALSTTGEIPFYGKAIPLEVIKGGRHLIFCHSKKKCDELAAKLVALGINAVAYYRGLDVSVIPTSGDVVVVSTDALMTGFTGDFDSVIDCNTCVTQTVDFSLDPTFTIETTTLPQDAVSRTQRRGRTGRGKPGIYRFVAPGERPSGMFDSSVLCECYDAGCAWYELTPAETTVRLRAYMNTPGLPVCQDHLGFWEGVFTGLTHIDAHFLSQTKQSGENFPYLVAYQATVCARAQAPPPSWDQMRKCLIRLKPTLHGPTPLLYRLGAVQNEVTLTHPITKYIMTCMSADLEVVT

Row | SMILES | IC50 [1] | EC50 [2]
1 | CC[C@@H]1C[C@@]12NC(=O)[C@@H]1C[C@H](CN1C(=O)[C@@H](N)C(C)(C)C)Oc1nc3c(cccc3n1C(C)C)C1=NC(C(C)C)=C(CC/C=C\CCCCS(=O)(=O)NC2=O)S1 [Compound 108] | ≥ 100 nM | ≥ 100 nM
2 | CC[C@@H]1C[C@@]12NC(=O)[C@@H]1C[C@H](CN1C(=O)[C@@H](NC(=O)OC(C)(C)C)C(C)(C)C)Oc1nc3c(cccc3n1C(C)C)C(=O)NCCCCCCC1(CC1)S(=O)(=O)NC2=O [Compound 11] | ≤ 10 nM | ≥ 100 nM
3 | CC[C@@H]1C[C@@]12NC(=O)[C@@H]1C[C@H](CN1C(=O)[C@@H](NC(=O)OC(C)(C)C)C(C)(C)C)Oc1nc3c(cccc3n1C(C)C)C1=NC(C(C)C)=C(CC/C=C\CCCCS(=O)(=O)NC2=O)S1 [Compound 106] | 10 to 100 nM | ≥ 100 nM
